Source: patent publication US6881741B2 (ViroChem Pharma Inc., priority 2001, dated 2005)

Each molecule was assayed against recombinant HCV NS5B (HCV RNA-dependent RNA polymerase) (Hepatitis C virus genotype 1b, UniProt P26663) (assay: biochemical). Conditions: IC50.
Sequence of recombinant HCV NS5B (HCV RNA-dependent RNA polymerase) (P26663 2420-3010 limits assumed): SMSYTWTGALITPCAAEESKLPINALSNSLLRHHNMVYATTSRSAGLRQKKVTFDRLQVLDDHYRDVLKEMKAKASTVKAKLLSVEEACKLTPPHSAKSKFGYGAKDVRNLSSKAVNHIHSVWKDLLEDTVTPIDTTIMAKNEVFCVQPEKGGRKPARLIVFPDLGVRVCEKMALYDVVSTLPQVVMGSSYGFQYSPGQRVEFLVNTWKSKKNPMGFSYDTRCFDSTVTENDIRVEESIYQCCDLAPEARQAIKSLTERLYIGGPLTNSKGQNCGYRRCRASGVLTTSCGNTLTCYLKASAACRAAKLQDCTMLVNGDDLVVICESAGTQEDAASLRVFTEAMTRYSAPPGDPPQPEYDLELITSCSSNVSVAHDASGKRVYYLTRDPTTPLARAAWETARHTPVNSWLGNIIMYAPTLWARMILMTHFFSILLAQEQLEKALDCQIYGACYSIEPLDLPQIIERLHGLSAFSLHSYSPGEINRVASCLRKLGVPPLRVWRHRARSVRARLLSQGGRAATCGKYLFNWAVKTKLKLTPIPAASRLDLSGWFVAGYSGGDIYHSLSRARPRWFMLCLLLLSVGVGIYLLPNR

Compound	IC50 [µM]
CC1CCC(C(=O)N(c2cc(-c3ccccc3)sc2C(=O)O)C(C)C)CC1 (stereo not drawn) [Compound 316, 3-[ISOPROPYL-(4-METHYL- CYCLOHEXANECARBONYL)-AMINO]-5- PHENYL-THIOPHENE-2-CARBOXYLIC ACID]	> 20
CC1CCC(C(=O)N(c2cc(-c3ccccc3)sc2C(=O)O)C(C)C)CC1 (stereo not drawn) [Compound 317, 3-[ISOPROPYL-(4-METHYL- CYCLOHEXANECARBONYL)-AMINO]-5- PHENYL-THIOPHENE-2-CARBOXYLIC ACID]	< 5

Same assay, conditions: related polymerase activity (Example 27 list); read-out: IC50

Compound	IC50 [µM]
Cc1ccc(C(=O)N(c2cc(-c3ccc(F)cc3)sc2C(=O)O)C(C)C)cc1 [Compound 283, 5-(4-FLUORO-PHENYL)-3-[ISOPROPYL-(4-METHYL-BENZOYL)-AMINO]-THIOPHENE-2-CARBOXYLIC ACID]	< 5
CN(C(=O)c1ccc(Cl)cc1Br)c1cc(-c2ccccc2)sc1C(=O)O [Compound 284, 3-[(2-BROMO-4-CHLORO-BENZOYL)-METHYL-AMINO]-5-PHENYL-THIOPHENE-2-CARBOXYLIC ACID]	< 5
Cc1cccc(C)c1S(=O)(=O)Nc1cc(-c2ccccc2)sc1C(=O)O [Compound 285, 3-(2,6-DIMETHYL-BENZENESULFONYLAMINO)-5-PHENYL-THIOPHENE-2-CARBOXYLIC ACID]	< 5
CC1CCC(C(=O)N(C)c2cc(-c3ccccc3)sc2C(=O)O)CC1 (stereo not drawn) [Compound 286, 3-[METHYL-(4-METHYL-CYCLOHEXANECARBONYL)-AMINO]-5-PHENYL THIOPHENE-2-CARBOXYLIC ACID]	< 5
COC(=O)c1sc(-c2ccccc2)cc1N(C(=O)c1ccc(Cl)cc1Cl)C(C)C [Compound 287, 3-[(2,4-DICHLORO-BENZOYL)-ISOPROPYL-AMINO]-5-PHENYL-THIOPHENE-2-CARBOXYLIC ACID METHYL ESTER]	5 to 20
Cc1ccc(S(=O)(=O)Nc2cc(-c3ccc(C#N)cc3)sc2C(=O)O)c(C)c1 [Compound 288, 5-(4-CYANO-PHENYL)-3-(2,4-DIMETHYL-BENZENESULFONYLAMINO)-THIOPHENE-2-CARBOXYLIC ACID]	< 5
N#Cc1ccc(-c2cc(NS(=O)(=O)c3ccc(Cl)cc3)c(C(=O)O)s2)cc1 [Compound 289, 3-(4-CHLORO-BENZENESULFONYLAMINO)-5-(4-CYANO-PHENYL)-THIOPHENE-2-CARBOXYLIC ACID]	< 5
Cc1ccc(S(=O)(=O)Nc2cc(-c3ccc(C#N)cc3)sc2C(=O)O)cc1 [Compound 290, 5-(4-CYANO-PHENYL)-3-(TOLUENE-4-SULFONYLAMINO)-THIOPHENE-2-CARBOXYLIC ACID]	5 to 20
Cc1csc(C(=O)N(C)c2cc(-c3ccccc3)sc2C(=O)O)c1 [Compound 293, 3-[METHYL-(4-METHYL-THIOPHENE-2-CARBONYL)-AMINO]-5-PHENYL-THIOPHENE-2-CARBOXYLIC ACID]	5 to 20
CC(C)N(C(=O)c1ccc(Cl)cc1Cl)c1cc(-c2cccc(Cl)c2)sc1C(=O)O [Compound 294, 5-(3-CHLORO-PHENYL)-3-[(2,4-DICHLORO-BENZOYL)-ISOPROPYL-AMINO]-THIOPHENE-2-CARBOXYLIC ACID]	< 5
Cc1ccc(C(=O)N(C)c2cc(-c3ccccn3)sc2C(=O)O)cc1 [Compound 296, 3-[METHYL-(4-METHYL-BENZOYL)-AMINO]-5-PYRIDIN-2-YL-THIOPHENE-2-CARBOXYLIC ACID]	5 to 20
CC(C)N(C(=S)c1ccc(Cl)cc1Cl)c1cc(-c2ccccc2)sc1C(=O)O [Compound 297, 3-[(2,4-DICHLORO-THIOBENZOYL)-ISOPROPYL-AMINO]-5-PHENYL-THIOPHENE-2-CARBOXYLIC ACID]	< 5
Cc1cc(C)c(S(=O)(=O)Nc2cc(-c3ccccc3)sc2C(=O)O)c(C)c1 [Compound 298, 5-PHENYL-3-(2,4,6-TRIMETHYL- BENZENESULFONYLAMINO)- THIOPHENE-2-CARBOXYLIC ACID]	< 5
CC(C(=O)O)N(C(=O)c1ccc(Cl)cc1Cl)c1cc(-c2ccccc2)sc1C(=O)O (stereo not drawn) [Compound 299, 3-[(1-CARBOXY-ETHYL)-(2,4-DICHLORO- BENZOYL)-AMINO]-5-PHENYL- THIOPHENE-2-CARBOXYLIC ACID]	< 5
CC(C)=CCN(C(=O)c1ccc(C)cc1)c1cc(-c2ccccc2)sc1C(=O)O [Compound 300, 3-[(4-METHYL-BENZOYL)-(3-METHYL- BUT-ENYL)-AMINO]-5-PHENYL- THIOPHENE-2-CARBOXYLIC ACID]	5 to 20
Cc1ccc(C(=O)N(c2cc(-c3ccccc3)sc2C(=O)O)C(C)C)c(O)c1 [Compound 301, 3-[(2-HYDROXY-4-METHYL-BENZOYL)- ISOPROPYL-AMINO]-5-PHENYL- THIOPHENE-2-CARBOXYLIC ACID]	5 to 20
Cc1ccc(C(=O)N(C)c2cc(-c3cccnc3)sc2C(=O)O)cc1 [Compound 302, 3-[METHYL-(4-METHYL-BENZOYL)- AMINO]-5-PYRIDIN-3-YL-THIOPHENE-2- CARBOXYLIC ACID]	5 to 20
Cc1ccc(C(=O)N(c2cc(-c3cccc(C(F)(F)F)c3)sc2C(=O)O)C(C)C)cc1 [Compound 304, 3-[ISOPROPYL-(4-METHYL-BENZOYL)- AMINO]-5-(3-TRIFLUOROMETHYL- PHENYL)-THIOPHENE-2-CARBOXYLIC ACID]	< 5
Cc1ccc(C(=O)N(c2cc(-c3cccc(C)c3)sc2C(=O)O)C(C)C)cc1 [Compound 305, 3-[ISOPROPYL-(4-METHYL-BENZOYL)- AMINO]-5-M-TOLYL-THIOPHENE-2- CARBOXYLIC ACID]	< 5

Compound	IC50 [µM]
CC(C)N(C(=O)c1ccc(Cl)cc1Br)c1cc(-c2ccccc2)sc1C(=O)O [Compound 306, 3-[(2-BROMO-4-CHLORO-BENZOYL)- ISOPROPYL-AMINO]-5-PHENYL- THIOPHENE-2-CARBOXYLIC ACID]	< 5
CC(C)N(C(=O)c1ccc(Cl)cc1F)c1cc(-c2ccccc2)sc1C(=O)O [Compound 307, 3-[(4-CHLORO-2-FLUORO-BENZOYL)- ISOPROPYL-AMINO]-5-PHENYL- THIOPHENE-2-CARBOXYLIC ACID]	< 5
Cc1ccc(S(=O)(=O)Nc2c(C(=O)O)sc(-c3ccccc3)c2C)c(C)c1 [Compound 308, 3-(2,4-DIMETHYL- BENZENESULFONYLAMINO)-4-METHYL- 5-PHENYL-THIOPHENE-2-CARBOXYLIC ACID]	5 to 20
Cc1ccc(C(=O)N(c2cc(-c3ccccc3)sc2C(=O)O)C(C)C)c(Br)c1 [Compound 309, 3-[(2-BROMO-4-METHYL-BENZOYL)- ISOPROPYL-AMINO]-5-PHENYL- THIOPHENE-2-CARBOXYLIC ACID]	< 5
CC(C)N(C(=O)c1ccc(Cl)cc1I)c1cc(-c2ccccc2)sc1C(=O)O [Compound 310, 3-[(4-CHLORO-2-IODO-BENZOYL)- ISOPROPYL-AMINO]-5-PHENYL- THIOPHENE-2-CARBOXYLIC ACID]	< 5
CC(C)N(C(=O)c1ccc(C#N)cc1)c1cc(-c2ccccc2)sc1C(=O)O [Compound 311, 3-[(4-CYANO-BENZOYL)-ISOPROPYL- AMINO]-5-PHENYL-THIOPHENE-2- CARBOXYLIC ACID]	5 to 20
C=CCN(C(=O)c1ccc(C)cc1)c1cc(-c2ccc(/C=C/C(=O)O)cc2)sc1C(=O)O [Compound 312, 3-[ALLYL-(4-METHYL-BENZOYL)-AMINO]- 5-[4-(2-CARBOXY-VINYL)-PHENYL]- THIOPHENE-2-CARBOXYLIC ACID]	< 5
CC(C)N(C(=O)c1ccc(Cl)cc1O)c1cc(-c2ccccc2)sc1C(=O)O [Compound 313, 3-[(4-CHLORO-2-HYDROXY-BENZOYL)- ISOPROPYL-AMINO]-5-PHENYL- THIOPHENE-2-CARBOXYLIC ACID]	< 5
Cc1c(-c2ccccc2)sc(C(=O)O)c1N(C(=O)c1ccc(Cl)cc1Cl)C(C)C [Compound 314, 3-[(2,4-DICHLORO-BENZOYL)- ISOPROPYL-AMINO]-4-METHYL-5- PHENYL-THIOPHENE-2-CARBOXYLIC ACID]	5 to 20
Cc1ccc(S(=O)(=O)Nc2cc(C(C)(C)C)sc2C(=O)O)c(C)c1 [Compound 315, 5-#TERT!-BUTYL-3-(2,4-DIMETHYL- BENZENESULFONYLAMINO)- THIOPHENE-2-CARBOXYLIC ACID]	5 to 20
CCCN(C(=O)c1ccc(C)cc1)c1cc(-c2ccc(CCC(=O)O)cc2)sc1C(=O)O [Compound 318, 5-[4-(2-CARBOXY-ETHYL)-PHENYL]-3-[(4- METHYL-BENZOYL)-PROPYL-AMINO]- THIOPHENE-2-CARBOXYLIC ACID]	5 to 20
Cc1ccc(S(=O)(=O)Nc2cc(-c3ccc(CO)cc3)sc2C(=O)O)c(C)c1 [Compound 320, 3-(2,4-DIMETHYL- BENZENESULFONYLAMINO)-5-(4- HYDROXYMETHYL-PHENYL)- THIOPHENE-2-CARBOXYLIC ACID]	< 5
Cc1ccc(S(=O)(=O)Nc2cc(-c3ccc(S(C)(=O)=O)cc3)sc2C(=O)O)c(C)c1 [Compound 321, 3-(2,4-DIMETHYL- BENZENESULFONYLAMINO)-5-(4- METHANESULFONYL-PHENYL)- THIOPHENE-2-CARBOXYLIC ACID]	< 5
Cc1ccc(S(=O)(=O)Nc2cc(-c3ccc(/C=C/C(=O)O)cc3)sc2C(=O)O)c(C)c1 [Compound 322, 5-[4-(2-CARBOXY-VINYL)-PHENYL]-3-(2,4- DIMETHYL-BENZENESULFONYLAMINO)- THIOPHENE-2-CARBOXYLIC ACID]	< 5
C=CCN(C(=O)c1ccc(C)cc1)c1cc(-c2cccc(/C=C/C(=O)O)c2)sc1C(=O)O [Compound 323, 3-[ALLYL-(4-METHYL-BENZOYL)-AMINO]- 5-[3-(2-CARBOXY-VINYL)-PHENYL]- THIOPHENE-2-CARBOXYLIC ACID]	5 to 20
Cc1cc(C)c(C(=O)N(c2cc(-c3ccccc3)sc2C(=O)O)C(C)C)c(C)c1 [Compound 324, 3-[ISOPROPYL-(2,4,6-TRIMETHYL- BENZOYL)-AMINO]-5-PHENYL- THIOPHENE-2-CARBOXYLIC ACID]	5 to 20
CCCN(C(=O)c1ccc(C)cc1)c1cc(-c2cccc(CCC(=O)O)c2)sc1C(=O)O [Compound 325, 5-[3-(2-CARBOXY-ETHYL)-PHENYL]-3-[(4- METHYL-BENZOYL)-PROPYL-AMINO]- THIOPHENE-2-CARBOXYLIC ACID]	5 to 20
CC(C)N(C(=O)c1ccc(C(F)(F)F)cc1F)c1cc(-c2ccccc2)sc1C(=O)O [Compound 326, 3-[(2-FLUORO-4-TRIFLUOROMETHYL- BENZOYL)-ISOPROPYL-AMINO]-5- PHENYL-THIOPHENE-2-CARBOXYLIC ACID]	< 5
